Several values for one entry are separate records, joined by “and”; a condition that tells them apart may be missing. Equal values may be shown once. Read-outs that look alike come from different tables or passages of the source.
Key:
NF-κB target genes = test: qRT-PCR of NF-κB target genes in LPS-stimulated Raw 264.7 cells; format: cell-based, mouse; conditions: LPS 1 μg/ml 2 h; for Effect on transcription of NF-κB target genes (COX-2, IL-6, IL-1β, TNF-α, IκBα, iNOS): 50 μM
[1] = Mouse PK, i.v. and oral gavage; format: in vivo; conditions: for bioavailability: PO 10mg/Kg versus IV, Avg.
Method: Supplementary file pbio.2004663.s002.tif: S1 Fig IC50 and the complete pharmacokinetic profiles of NBD mimetics. (A) Dose-dependent curve of NBD mimetics ranging from 0 to 150 μM was determined by NF-κB luciferase assays in HEK293 cells. (B) Complete pharmacokinetic profiles of SR12460 and SR12343 administered i.v. or by oral gavage in mice. Underlying data can be found in S1 Data. AUC%Extrap, percentage of the area under the curve extrapolated to infinity from Tlast to infinity; AUCINF_obs, area under the curve from 0 to infinity; AUClast, area under the curve from the time of dosing to the last measurable concentration; Cmax, maximum observed concentration; Clobs, total serum clearance; HEK, human embryonic kidney 293 cells; IC50, half maximal inhibitory concentration; NBD, NEMO-binding domain; NEMO, NF-κB essential modulator; NF-κB, nuclear factor κB; T1/2, half-life; Tmax, time of maximum concentration. (TIF) Click here for additional data file.

mdx mice = test: Chronic treatment of mdx mice, hematoxylin-eosin histology of TA muscle; format: in vivo, mouse; conditions: SR 30 mg/kg; for Percentage of area exhibiting necrosis or infiltration, TA muscle: Fig 7C, 8K-NBD 10 mg/kg i.p. 3 times/wk for 4 wk, single mice; for Muscle pathology of TA muscle (hematoxylin-eosin): 8K-NBD 10 mg/kg, 3 times/wk 4 wk
Description: Fig 7 NBD mimetics improve muscular pathology and grip strength in mdx mice. (A) Shown is the treatment regimen with NBD mimetics in mdx mice. (B) Hematoxylin–eosin staining of TA muscle from 7-wk-old, treated or untreated mdx mice. Images were taken at magnification of 20×. Representative images were shown for each treatment group. […] (E) TA muscle from 7-wk-old, treated or untreated mdx mice was stained with laminin by IHC to outline myofibers. Overall images of TA muscle were shown on the left side, and the inset panel images were shown on the right side. (F) Quantitation of minimum Feret diameter in centrally and noncentrally nucleated myofibers. (G) Forelimb force determined by grip strength test. Five-wk-old (2 wk post treatment) and 7-wk-old (4 wk post treatment) mdx mice, treated or untreated, were tested for forelimb grip strength. Five sequential tests were performed, and the force was normalized to body weight. Data were shown as mean +/− SEM. Dosages used are as follows: SR12343 (30 mg/kg), SR12460 (30 mg/kg), and 8K-NBD peptide (10 mg/kg). n = 6–7 each group. *P < 0.05, **P < 0.01. Underlying data can be found in S1 Data. eMyHC, embryonic myosin heavy chain; IHC, immunohistochemistry; NBD, NEMO-binding domain; NEMO, NF-κB essential modulator; Pax7, paired box protein 7; qRT-PCR, quantitative real-time polymerase chain reaction; TA, tibialis anterior.
To determine whether SR12343 and SR12460 improve muscle pathology, TA muscle was stained with hematoxylin–eosin to assess inflammatory infiltration, necrosis, central nucleation, and fibrosis. […] In addition, Masson trichrome stain was conducted to further measure muscle fibrosis. Chronic treatment with SR12343 reduced muscle fibrosis (blue) in diaphragm and TA muscle tissues in comparison to control group (Fig 8A & 8B). To further quantitate the extent of inflammation in mdx muscle tissues, diaphragm and TA muscle were immunostained for cluster of differentiation 68 (CD68), a macrophage marker. Treatment with SR12343 reduced the number of CD68^+ cells by almost 50% per myofiber in both diaphragm and TA tissues (Fig 8A & 8B). […] To quantify the average fiber size in an unbiased way, TA muscle was stained with laminin to outline myofibers, and Feret diameter of all myocytes was quantitated in a whole muscle section.
HEK293 cells and MEFs were grown in Dulbecco’s Modified Eagle Medium (with 4.5 g/L glucose and L-glutamine), supplemented with 10% fetal bovine serum, penicillin, and streptomycin. […]
Supplementary file pbio.2004663.s005.tif: S4 Fig Chronic treatment with NBD mimetics improves muscle pathology by inhibiting NF-κB DNA binding activity in mdx mice. (A) Quantification of percentage of centralized myonuclei. […]

[2] = Fig 4C, IKKi VII 2 μM, 8K-NBD 200 μM, SR compounds 50 μM, relative to no LPS
[3] = PO 10mg/Kg, single mice and Avg., 10 mg/kg
[4] = PO 10mg/Kg, single mice and Avg., 10 mg/kg, mean
[5] = mouse, serum, po, 10 mg/kg, PO 10mg/Kg, single mice and Avg.
[6] = IV 2mg/Kg, single mice and Avg., 2 mg/kg
[7] = IV 2mg/Kg, single mice and Avg., 2 mg/kg, mean

Structure (SMILES): O=C(CNc1ccc(Cl)cn1)NCCc1cccc(Br)c1 [SR12343]
- COX2 mRNA expression (qRT-PCR) (NF-κB target genes; [2]): 201.141 and 209.385
- IL6 mRNA expression (qRT-PCR) (NF-κB target genes; [2]): 204.868 and 211.79
- IL-1b mRNA expression (qRT-PCR) (NF-κB target genes; [2]): 270.981 and 273.172
- TNFa mRNA expression (qRT-PCR) (NF-κB target genes; [2]): 84.4509 and 85.4634
- iNOS mRNA expression (qRT-PCR) (NF-κB target genes; [2]): 6.825 and 6.083
- ikBa mRNA expression (qRT-PCR) (NF-κB target genes; [2]): 15.399 and 14.5661
- Effect on transcription of NF-κB target genes (COX-2, IL-6, IL-1β, TNF-α, IκBα, iNOS) (NF-κB target genes): significant inhibition on COX-2, IL-6, and iNOS expression
- AUC %Extrap ([1]; IV 1mg/Kg, single mice and Avg., 1 mg/kg): 0.68% and 0.92% and 0.30%
- AUC %Extrap ([1]; IV 1mg/Kg, single mice and Avg., 1 mg/kg, mean): 0.63%
- AUC %Extrap [1, 3]: 0.51% and 0.40% and 0.32%
- AUCINF_obs [1, 3]: 11013 ng·min/mL and 20121 ng·min/mL
- Cl_obs [1, 3]: 862.00 mL/min/kg and 908.01 mL/min/kg and 497.00 mL/min/kg
- T1/2 [1, 3]: 0.50 h
- AUC %Extrap [1, 4]: 0.41%
- AUCINF_obs [1, 4]: 14245 ng·min/mL
- Cl_obs [1, 4]: 755.67 mL/min/kg
- T1/2 [1, 4]: 0.53 h
- Oral activity (comparison) ([1]; S1B Fig): not as orally active as SR123460
- Tmax ([1]; mouse, serum, iv, 1 mg/kg, IV 1mg/Kg, single mice and Avg., read-out: Tmax): 0.08 h
- AUC(0-t) [1, 5]: 192 ng·h/mL and 0.52 µM·h
- Cmax [1, 5]: 523 ng/mL and 1.43 µM
- half-life [1, 5]: 0.58 h
- AUC(0-inf) ([1]; mouse, serum, po, 10 mg/kg, PO 10mg/Kg, single mice and Avg., read-out: AUCINF_obs (converted)): 193 ng·h/mL
- bioavailability ([1]; mouse, serum): 0.86%
- Percentage of area exhibiting necrosis or infiltration, TA muscle (mdx mice): 2% and 3% and 0% and 1%
- Muscle pathology of TA muscle (hematoxylin-eosin) (mdx mice): most significant pathological improvement

Structure (SMILES): O=C(CNCCc1cc(F)cc(F)c1)Nc1ccc(Cl)cn1 [SR12460]
- COX2 mRNA expression (qRT-PCR) (NF-κB target genes; [2]): 38.9806 and 69.3201 and 44.3249
- IL-1b mRNA expression (qRT-PCR) (NF-κB target genes; [2]): 108.936
- iNOS mRNA expression (qRT-PCR) (NF-κB target genes; [2]): 2.289 and 2.778
- Effect on transcription of NF-κB target genes (COX-2, IL-6, IL-1β, TNF-α, IκBα, iNOS) (NF-κB target genes): significantly inhibit the transcription of all NF-κB target genes tested
- AUC %Extrap [1, 6]: 17.95% and 11.52%
- MRTINF_obs [1, 6]: 3.50 h
- T1/2 [1, 6]: 2.57 h
- Vss_obs [1, 6]: 0.17 L/kg and 0.30 L/kg
- AUC %Extrap [1, 7]: 14.74%
- MRTINF_obs [1, 7]: 3.99 h
- T1/2 [1, 7]: 2.99 h
- Vss_obs [1, 7]: 0.23 L/kg
- T1/2 [1, 3]: 1.99 h and 1.74 h
- Tmax [1, 3]: 1.00 h
- T1/2 [1, 4]: 2.35 h
- Tmax [1, 4]: 0.67 h
- half-life ([1]; mouse, serum, iv, 2 mg/kg, IV 2mg/Kg, single mice and Avg.): 3.42 h
- MRT inf ([1]; mouse, serum, iv, 2 mg/kg, IV 2mg/Kg, single mice and Avg., read-out: MRTINF_obs): 4.49 h
- AUC(0-t) [1, 5]: 47600 ng·h/mL and 146 µM·h
- Cmax [1, 5]: 11200 ng/mL and 34.5 µM
- half-life [1, 5]: 3.31 h
- Tmax ([1]; mouse, serum, po, 10 mg/kg, PO 10mg/Kg, single mice and Avg., read-out: Tmax): 0.5 h
- bioavailability ([1]; mouse, serum): 20.1%
- Percentage of area exhibiting necrosis or infiltration, TA muscle (mdx mice): 3% and 6%
- Muscle pathology of TA muscle (hematoxylin-eosin) (mdx mice): improved muscle pathology, although not as effectively as SR12343

— PMC6013238, “Development of novel NEMO-binding domain mimetics for inhibiting IKK/NF-κB activation” (PLoS Biology, 2018)
